Reference: patent US20260076973A1 (priority 2023, published 2026)
Counter-ions that a name gives are not always drawn. Like-named read-outs stand apart in the source and are kept apart here.

Tested on: SARS-CoV-2 (WA1)
Experiment: microbe, parasite or virus in culture
Format: cell-based
[1] = Severe acute respiratory syndrome coronavirus 2, Vero C1008, VIRADEM compounds, SARS-CoV-2(WA1) CPE assay, Round 2, concentration range 1000-0.05 nM, Vero E6, read-out: IC50
[2] = VIRADEM compounds, SARS-CoV-2(WA1) CPE assay, Round 2, concentration range 1000-0.05 nM, Vero E6, read-out: IC50

| SMILES | IC50 [1] | further results |
| --- | --- | --- |
| CCOc1ccc(Nc2nc(N3CCOCC3)nc(N3CCOCC3)n2)cc1 [VIRADEM-9794, (4,6-Dimorpholin-4-yl-[1,3,5]triazin-2-yl)-(4-ethoxyphenyl)-amine hydrochloride] | > 1000 nM | – |
| CCCCc1ccc(Nc2nc(N3CCOCC3)nc(N3CCOCC3)n2)cc1 [VIRADEM-10257, (4-n-Butylphenyl)-(4,6-dimorpholin-4-yl-[1,3,5]triazin-2-yl)-amine hydrochloride] | > 1000 nM | – |
| Clc1ccc(Nc2nc(N3CCOCC3)nc(N3CCOCC3)n2)cc1Cl [VIRADEM-10258, (3,4-Dichlorophenyl)-(4,6-dimorpholin-4-yl-[1,3,5]triazin-2-yl)-amine hydrochloride] | 610 nM | – |
| c1ccc(Nc2nc(N3CCOCC3)nc(N3CCOCC3)n2)cc1 [VIRADEM-10846, (4,6-Dimorpholin-4-yl-[1,3,5]triazin-2-yl)-phenylamine hydrochloride] | > 1000 nM | – |
| Cc1cccc(Nc2nc(N3CCOCC3)nc(N3CCOCC3)n2)c1 [VIRADEM-10848, (4,6-Dimorpholin-4-yl-[1,3,5]triazin-2-yl)-m-tolyl-amine hydrochloride] | > 1000 nM | – |
| Fc1ccc(Nc2nc(N3CCOCC3)nc(N3CCOCC3)n2)cc1 [VIRADEM-10849, (4,6-Dimorpholin-4-yl-[1,3,5]triazin-2-yl)-(4-fluorophenyl)-amine hydrochloride] | > 1000 nM | – |
| S=C(NNc1nc(N2CCOCC2)nc(N2CCOCC2)n1)Nc1ccccc1 [VIRADEM-10867, 2-(4,6-dimorpholine-4-yl-1,3,5-triazine-2-yl)-N-phenylhydrazine-carbothioamide] | > 1000 nM | – |
| COc1cccc(Nc2nc(N3CCOCC3)nc(N3CCOCC3)n2)c1 [VIRADEM-10879, (4,6-Dimorpholin-4-yl-[1,3,5]triazin-2-yl)-(3-methoxyphenyl)-amine hydrochloride] | > 1000 nM | – |
| COc1ccccc1Nc1nc(N2CCOCC2)nc(N2CCOCC2)n1 [VIRADEM-10881, (4,6-Dimorpholin-4-yl-[1,3,5]triazin-2-yl)-(2-methoxyphenyl)-amine hydrochloride] | > 1000 nM | – |
| Cc1ccc(Nc2nc(N3CCOCC3)nc(N3CCOCC3)n2)cc1 [VIRADEM-10882, (4,6-Dimorpholin-4-yl-[1,3,5]triazin-2-yl)-p-tolyl-amine hydrochloride] | > 1000 nM | – |
| CCc1ccc(Nc2nc(N3CCOCC3)nc(N3CCOCC3)n2)cc1 [VIRADEM-10883, (4,6-Dimorpholin-4-yl-[1,3,5]triazin-2-yl)-(4-ethylphenyl)-amine hydrochloride] | 990 nM | – |
| Cc1ccc(Nc2nc(N3CCOCC3)nc(N3CCOCC3)n2)cc1C [VIRADEM-10884, (3,4-dimethylphenyl)-(4,6-dimorpholin-4-yl-[1,3,5]triazin-2-yl)-amine] | – | IC50 (Severe acute respiratory syndrome coronavirus 2, Vero C1008): 80 nM |
| COc1ccc(Nc2nc(N3CCOCC3)nc(N3CCOCC3)n2)cc1 [VIRADEM-10885, (4,6-Dimorpholin-4-yl-[1,3,5]triazin-2-yl)-(4-methoxyphenyl)-amine hydrochloride] | > 1000 nM | – |
| Cc1ccc(Nc2nc(N3CCOCC3)nc(N3CCOCC3)n2)cc1Cl [VIRADEM-10886, (3-Chloro-4-methylphenyl)-(4,6-dimorpholin-4-yl-[1,3,5]triazin-2-yl)-amine hydrochloride] | 310 nM | – |
| Cc1cc(C)cc(Nc2nc(N3CCOCC3)nc(N3CCOCC3)n2)c1 [VIRADEM-10887, (3,5-Dimethylphenyl)-(4,6-dimorpholin-4-yl-[1,3,5]triazin-2-yl)-amine] | > 1000 nM | – |
| COC(=O)c1ccc(Nc2nc(N3CCOCC3)nc(N3CCOCC3)n2)cc1 [VIRADEM-10890, 4-(4,6-Dimorpholin-4-yl-[1,3,5]triazin-2-ylamino-benzoic acid methyl ester hydrochloride] | – | IC50 [2]: > 1000 nM |
| FC(F)(F)Oc1ccc(Nc2nc(N3CCOCC3)nc(N3CCOCC3)n2)cc1 [VIRADEM-10891, (4,6-Dimorpholin-4-yl-[1,3,5]triazin-2-yl)-(4-trifluoromethoxyphenyl)-amine hydrochloride] | > 1000 nM | – |
| c1ccc(Oc2ccc(Nc3nc(N4CCOCC4)nc(N4CCOCC4)n3)cc2)cc1 [VIRADEM-10892, (4,6-Dimorpholin-4-yl-[1,3,5]triazin-2-yl)-(4-phenoxyphenyl)-amine hydrochloride] | > 1000 nM | – |
| Fc1ccc(Nc2nc(N3CCOCC3)nc(N3CCOCC3)n2)cc1Cl [VIRADEM-10893, (3-Chloro-4-fluorophenyl)-(4,6-dimorpholin-4-yl-[1,3,5]triazin-2-yl)-amine hydrochloride] | > 1000 nM | – |
| Clc1ccc(Nc2nc(N3CCOCC3)nc(N3CCOCC3)n2)cc1 [VIRADEM-10894, (4-Chlorophenyl)-(4,6-dimorpholin-4-yl-[1,3,5]triazin-2-yl)-amine hydrochloride] | 840 nM | – |
| Clc1cccc(Nc2nc(N3CCOCC3)nc(N3CCOCC3)n2)c1 [VIRADEM-10902, (3-Chlorophenyl)-(4,6-dimorpholin-4-yl-[1,3,5]triazin-2-yl)-amine hydrochloride] | > 1000 nM | – |

| SMILES | IC50 [1] | further results |
| --- | --- | --- |
| C1CCN(c2nc(N3CCOCC3)nc(N3CCOCC3)n2)CC1 [VIRADEM-10903, 2,4-Dimorpholin-4-yl-6-piperidin-1-yl-[1,3,5]triazin hydrochloride] | > 1000 nM | – |
| COc1ccc(Nc2nc(N3CCCCC3)nc(N3CCCCC3)n2)cc1 [VIRADEM-11041, (4,6-Dipiperidine-1-yl-[1,3,5]triazin-2-yl)-(4-methoxyphenyl)-amine hydrochloride] | > 1000 nM | – |
| Cc1ccc(Nc2nc(C3CCNC3)nc(C3CCNC3)n2)cc1 (stereo not drawn) [VIRADEM-11139, (4,6-Dipyrrolidin-4-yl-[1,3,5]triazin-2-yl)-p-tolyl-amine hydrochloride] | > 1000 nM | – |
| Clc1cccc(Nc2nc(N3CCCCC3)nc(N3CCCCC3)n2)c1 [VIRADEM-11499, (3-Chlorophenyl)-(4,6-dipiperidine-1-yl-[1,3,5]triazin-2-yl)-amine hydrochloride] | > 1000 nM | – |
| c1ccc(Oc2ccc(Nc3nc(C4CCNC4)nc(C4CCNC4)n3)cc2)cc1 (stereo not drawn) [VIRADEM-11503, (4,6-Dipyrrolidin-4-yl-[1,3,5]triazin-2-yl)-(4-phenoxyphenyl)-amine hydrochloride] | > 1000 nM | – |
| CC(=O)Nc1ccc(Nc2nc(N3CCCC3)nc(N3CCCC3)n2)cc1 [VIRADEM-11510, N-[4-(4,6-Dipyrrolidin-1-yl-[1,3,5]triazin-2-ylamino)-phenyl]-acetamide hydrochloride] | > 1000 nM | – |
| CCCCc1ccc(Nc2nc(N3CCCC3)nc(N3CCCC3)n2)cc1 [VIRADEM-11511, (4-Butylphenyl)-(4,6-dipyrrolidin-1-yl-[1,3,5]triazin-2-yl)-amine hydrochloride] | > 1000 nM | – |
| CCOc1ccc(Nc2nc(N3CCCC3)nc(N3CCCC3)n2)cc1 [VIRADEM-11515, (4,6-Dipyrrolidin-1-yl-[1,3,5]triazin-2-yl)-(4-ethoxyphenyl)-amine hydrochloride] | > 1000 nM | – |
| c1cc2c(cc1Nc1nc(N3CCCC3)nc(N3CCCC3)n1)OCO2 [VIRADEM-11522, Benzo[1,3]dioxol-5-yl-(4,6-dipyrrolidin-1-yl-[1,3,5]triazin-2-yl)-amine hydrochloride] | > 1000 nM | – |
| c1ccc(Nc2nc(N3CCCC3)nc(N3CCCC3)n2)cc1 [VIRADEM-11528, (4,6-Dipyrrolidin-1-yl-[1,3,5]triazin-2-yl)-phenylamine hydrochloride] | > 1000 nM | – |
| c1cc2c(cc1Nc1nc(Nc3ccc4c(c3)OCO4)nc(N3CCOCC3)n1)OCO2 [VIRADEM-11566, N,N^1-bis-benzo[1,3]dioxol-5-yl-6-morpholin-4-yl-[1,3,5]triazine-2,4-diamine] | 320 nM | – |
| c1cc2c(cc1Nc1nc(N3CCCC3)nc(N3CCCC3)n1)OCCO2 [VIRADEM-11596, -(2,3-dihydrobenzo[1,4]dioxin-6-yl)-(4,6-dipyrrolidin-1-yl-[1,3,5]triazin-2-yl)-amine hydrochloride] | – | IC50 [2]: > 1000 nM |
| COc1ccccc1Nc1nc(N2CCCC2)nc(N2CCCC2)n1 [VIRADEM-11597, (4,6-Dipyrrolidin-1-yl-[1,3,5]triazin-2-yl)-(2-methoxyphenyl)-amine hydrochloride] | > 1000 nM | – |
| CCOC(=O)c1ccc(Nc2nc(Nc3ccc(F)cc3)nc(N3CCOCC3)n2)cc1 [VIRADEM-11660, 4-[4-(4-Fluorophenylamino)-6-morpholin-4-yl-[1,3,5]triazin-2-ylamino]benzoic acid ethyl ester] | 120 nM | – |
| NC1=NC(Nc2ccc3c(c2)OCO3)N(c2ccc(F)cc2)C(N2CCOCC2)=N1 (stereo not drawn) [VIRADEM-11674, N-Benzo[1,3]dioxol-5-yl-N^1-(4-fluorophenyl)-6-morpholin-4-yl-[1,3,5]triazine-2,4-diamine hydrochloride] | 200 nM | – |
| Cc1cccc(N2C(N3CCOCC3)=NC(N)=NC2Nc2ccc(Cl)cc2)c1 (stereo not drawn) [VIRADEM-11680, N-(4-Chlorophenyl)-6-morpholin-4-yl-N^1-m-tolyl-[1,3,5]triazine-2,4-diamine hydrochloride] | > 1000 nM | – |
| CCc1ccc(Nc2nc(Nc3ccc(Cl)c(Cl)c3)nc(N3CCOCC3)n2)cc1 [VIRADEM-11758, N-(3,4-Dichlorophenyl)-N^1-(4-ethyphenyl)-6-morpholin-4-yl-[1,3,5]triazine-2,4-diamine] | – | IC50 [2]: > 1000 nM |
| Cc1cc(C)cc(Nc2nc(Nc3ccc(Cl)c(Cl)c3)nc(N3CCOCC3)n2)c1 [VIRADEM-11759, N-(3,4-Dichlorophenyl)-N^1-(3,5-dimethyphenyl)-6-morpholin-4-yl-[1,3,5]triazine-2,4-diamine] | – | IC50 [2]: 350 nM |
| CCNc1nc(NCC)nc(Nc2ccc(C)c(C)c2)n1 [VIRADEM-11768, N-(3,4-Dimethylhenyl)-N^1,N^2-diethyl-[1,3,5]triazine-2,4,6-triamine hydrochloride] | – | IC50 [2]: > 1000 nM |
| CC(=O)c1cccc(Nc2nc(Nc3cccc(C)c3)nc(N3CCOCC3)n2)c1 [VIRADEM-11778, 1-[3-(4-Morpholin-4-yl-6-m-tolylamino-[1,3,5]triazin-2-ylamino)-phenyl]-ethanone hydrochloride] | 320 nM | – |
| Cc1cccc(N2C(N3CCOCC3)=NC(N)=NC2Nc2cccc(Cl)c2)c1 (stereo not drawn) [VIRADEM-11781, N-(3-Chlorophenyl)-6-morpholin-4-yl-N^1-m-tolyl-[1,3,5]triazine-2,4-diamine hydrochloride] | 110 nM | – |
